Measured values from ChEMBL document CHEMBL1177693, “Antimalarials from nature” (Bioorg Med Chem, 2009).
Values after ≈ are worked out from the molar mass of the structure shown.

test system: Plasmodium falciparum; assay: Antimalarial activity against Plasmodium falciparum; type: functional, organism-based; conditions: Plasmodium falciparum

Compound	IC50 [µg/mL]	MIC [µM]
C[C@@H]1CC[C@H]2C(C)(C)[C@H](O)CC[C@]2(C)[C@@]12Cc1c(O)cc3c(c1O2)COC3=O	0.15 (≈ 0.388 µM)	
CC1=CC(=O)C[C@@H]2[C@@](C)(CC[C@H](C)CC(=O)O)[C@H](C)C(=O)C[C@@]12C	4.3 (≈ 12.9 µM)	
C=C(C)[C@@H]1CC[C@]2(C)CC[C@]3(C)[C@H](CC[C@@H]4[C@@]5(C)CC[C@H](O)C(C)(C)[C@@H]5CC[C@]43C)[C@@H]12 [LUPEOL]		13.1 (≈ 5.58 µg/mL)

test system: Plasmodium falciparum; assay: Antimalarial activity against Plasmodium falciparum T9-96; type: functional, organism-based; conditions: not given

Compound	IC50 [µg/mL]
CO[C@@H]1C=C[C@]23c4cc5c(cc4[C@@H](O)N(C[C@@H]2O)[C@H]3C1)OCO5	0.34 (≈ 1.07 µM)
CO[C@@H]1C=C[C@@]23c4cc5c(cc4CN(C[C@@H]2O)[C@H]3C1)OCO5 [(+)-HAEMANTHAMINE]	0.7 (≈ 2.32 µM)

test system: Plasmodium falciparum; assay: Antimalarial activity against Plasmodium falciparum K1; type: functional, organism-based; conditions: not given

Compound	EC50 [µg/mL]	IC50
COC(=O)C[C@H]1[C@]2(C)C3=C(C)[C@H](c4ccoc4)C[C@H]3O[C@@H]2[C@@H]2OC(=O)[C@]3(C)C=CC(=O)[C@@]1(C)[C@@H]23 [NIMBOLIDE]	0.00095 (≈ 0.00204 µM)	
CC(C)[C@@H]1OC(=O)[C@@H](Cc2ccccc2)N(C)C(=O)[C@H](C(C)C)OC(=O)[C@@H](Cc2ccccc2)N(C)C(=O)[C@H](C(C)C)OC(=O)[C@@H](Cc2ccccc2)N(C)C1=O [BEAUVERICIN]	1.6 (≈ 2.04 µM)	
COc1c(OCCCN(C)C)cc2oc3cc(O)c(CC=C(C)C)c(O)c3c(=O)c2c1CC=C(C)C		< 1 µM
CCN(CC)CC(O)COc1cc2oc3cc(O)c(CC=C(C)C)c(O)c3c(=O)c2c(CC=C(C)C)c1OC (stereo not drawn)		< 1 µM
C[C@H]1C/C=C/[C@@H](O)[C@@H](O)CC/C=C/c2cc(O)cc(O)c2C(=O)O1 [AIGIALOMYCIN D]		6.6 µg/mL
CCN(CC)CCOc1cc2oc3cc(O)c(CC=C(C)C)c(O)c3c(=O)c2c(CC=C(C)C)c1OC		< 1 µM
CC[C@H](C)[C@H]1OC(=O)[C@H](Cc2ccccc2)N(C)C(=O)[C@@H](C(C)C)OC(=O)[C@H](Cc2ccccc2)N(C)C(=O)[C@@H](C(C)C)OC(=O)[C@H](Cc2ccccc2)N(C)C1=O [BEAUVERICIN A]	12 (≈ 15 µM)	
COc1ccc2c3c1O[C@H]1C[C@@H](O)C=C[C@@]31CCN(C)C2 [GALANTAMINE]		4.38 µg/mL
CO[C@@H]1C=C[C@@]23c4cc5c(cc4CO[C@]2(O)CN(C)[C@H]3C1)OCO5 [TAZETTINE]		5.42 µg/mL

test system: Plasmodium falciparum; assay: Antimalarial activity against multidrug-resistant Plasmodium falciparum K1; type: functional, organism-based; conditions: not given

Compound	IC50 [µM]
CC[C@@]12CCCN3CC[C@]4(c5ccc(OC)c(O)c5N(C(C)=O)[C@@H]4CC1)[C@H]32 [ASPIDOCARPINE]	0.019
COC(=O)[C@]12OC[C@]34[C@H]([C@@H](O)[C@@H]1O)[C@@]1(C)C5=CC(=O)OC5=C[C@@H](C)[C@@H]1C[C@H]3OC(=O)[C@H](OC(C)=O)[C@@H]24 [NEOSERGEOLIDE]	0.002
Cc1c2ccncc2c(C)c2c1[nH]c1ccccc12 [ELLIPTECINE]	0.073
CN1C2=CC(O)=c3ccccc3=NC2c2ccccc21 (stereo not drawn) [CRYPTOHEPTINE]	0.8

test system: Plasmodium falciparum; assay: Antimalarial activity against Plasmodium falciparum W2; type: functional, organism-based; conditions: not given

Compound	IC50 [µM]
COc1cc2c(cc1OC)[C@@H]1Cc3ccc(OC)c(OC)c3CN1CC2 [TETRAHYDROPALMATINE]	32.6
CN1CCc2cc3c(c4c2c1cc1ccccc14)OCO3 [DEHYDROROEMERINE]	0.36
COc1cc2c(cc1OC)CN1CCc3cc(OC)c(OC)cc3[C@@H]1C2 [XYLOPININE]	52.3
COc1ccc2cc1Oc1ccc(cc1)C[C@H]1c3c(cc4c(c3Oc3cc5c(cc3OC)CCN(C)[C@@H]5C2)OCO4)CCN1C [CEPHARANTHINE]	0.61

test system: Plasmodium falciparum; assay: Antimalarial activity against chloroquine-resistant Plasmodium falciparum; type: functional, organism-based; conditions: not given

Compound	IC50 [µg/mL]
COc1ccc([C@H]2Oc3cc(O)cc(O)c3C(=O)[C@@H]2[C@H]2C(=O)c3c(O)cc(O)cc3O[C@@H]2c2ccc(O)cc2)cc1 [SIKOKIANIN C]	0.56 (≈ 1.01 µM)
COc1ccc([C@@H]2Oc3cc(O)cc(O)c3C(=O)[C@H]2[C@H]2C(=O)c3c(O)cc(O)cc3O[C@H]2c2ccc(O)cc2)cc1 [SIKOKIANIN B]	0.54 (≈ 0.97 µM)

test system: Plasmodium berghei; assay: Antimalarial activity against Plasmodium berghei infected in mice (Mus musculus) assessed as increase in survival of mice (Mus musculus) at 100 uM/kg; type: functional; conditions: not given

Compound	Survival [days]
CCN(CC)CCCC(C)Nc1ccnc2cc(Cl)ccc12 (stereo not drawn) [CHLOROQUINE]	6
C[C@@H]1CC[C@H]2[C@@H](C)C(=O)O[C@@H]3O[C@@]4(C)CC[C@@H]1[C@]32OO4 [ARTEMISININ]	2
Oc1cccc2c1[nH]c1c(C3=C[C@]4(O)CC/C=C\CCCCN5CC[C@H]3[C@@]3(C[C@H]6/C=C\CCCCN6[C@@H]34)C5)nccc12 [ENT-8-HYDROXYMENZAMINE A]	9
O[C@@H]1CCCN2CC[C@@H]1O[C@@]13CC[C@@H](OC[C@]45CN6CCCC/C=C\CC[C@](O)(C=C(c7nccc8c7[nH]c7ccccc78)[C@@H]4CC6)[C@H]25)[C@@H](O)CCN1[C@@H]1[C@]2(CN4CCCC/C=C\CC[C@]1(O)C=C(c1nccc5c1[nH]c1ccccc15)[C@@H]2CC4)C3 [NEO-KAULUAMINE]	9
